Assay results from patent US7714014B2, “Targeting GLI proteins in human cancer by small molecules” (The Regents of the University of California, priority 2005, dated 2010).

Columns and labels:
[1] = test system: SW480 cells transfected with empty pCDNA3 vector or Gli2 cDNA expression construct; test: GLI2 over-expression rescue experiment; assay type: cell-based, human; details: 5 days
Description: For transient transfection experiments, cells (2×10^5) were plated in six-well plates using growth medium without antibiotics 24 hrs before transfection. Lipofectamine™ 2000 (Invitrogen Life Technologies; Carlsbad, Calif.) was used to mediate transfection using 2.0 μg of cDNA in pCDNA3 vector or 2.0 μg empty pCDNA3 vector as control, according to the manufacturer's protocol. Then the transfected cells were cultured at 37° C. in a humid incubator with 5% CO2 until they were ready for analysis. Gli2 cDNA was kindly provided by Dr. Fritz Aberger at University of Salzburg (Salzburg, Austria). Gli1 and Gli3 cDNA were kindly provided by Dr. Bert Vogelstein and Dr. Kenneth W. Kinzler at the Sidney Kimmel Comprehensive Cancer Center of the Johns Hopkins University (Baltimore, Md.). TAFIII31 cDNA was kindly provided by Dr. Gregory L. Verdine at Harvard University (Cambridge, Mass.).
As described herein, GLI3 seems to activate transcription of Gli1 and Gli2 genes. […] If so, then transfecting a GLI1 and/or GLI2 expression construct into a cell treated with a small molecule compound of the present invention, should lead to at least a partial rescue of the apoptotic effect mediated by the small molecule compound. Thus, to further examine the specificity of the small molecule compound FN1-5, as well as its inhibitory mechanisms, it was tested whether over-expressing GLI2 protein could attenuate the cell killing effect of FN1-5. In this experiment, the colon cancer cell line SW480 was transfected with either empty pCDNA3 vector or with a Gli2 cDNA expression construct. After selection, the transfected cells were re-plated in 6-well plates at same numbers, and then FN1-5 was added into medium at a final concentration of 50 μM.
To further examine the specificity of the small molecule compound FN1-8, as well as its inhibitory mechanisms, we tested whether over-expressing GLI2 protein could attenuate the cell killing effect of FN1-8. The transfection experiment was performed as described above. After 5 days, apoptosis analysis using flow cytometry was performed to quantify the experiment.

H460 (NSCLC) = test: Apoptosis analysis (Annexin V FITC, flow cytometry); assay type: cell-based, human; details: 3 days
Description: (§1) Apoptosis was analyzed by using an Annexin V FITC Apoptosis Detection Kit (Biosource, Camarillo, Calif.), according to the manufacturer's protocol. After treatment with different small molecule compounds at various concentrations for about 3 days, cells were harvested by trypsinization, stained and immediately analyzed by flow cytometry (FACScan; Decton Dickinson, Franklin Lake, N.J.). Early apoptotic cells with exposed phosphatidylserine but intact cell membranes will bind to Annexin V-FITC, but not propidium iodide (PI). Cells in necrotic or late apoptotic stages will be labeled with both Annexin V-FITC and PI. “% apoptotic cells” or “% apoptosis” refers to the combined early and late apoptotic cells.

CaCO2 (colon cancer) = test: as above; assay type: cell-based, human; details: about 3 days
Description: as §1

H838 (NSCLC) = test: as above; assay type: cell-based, human; details: 3 days
Description: as §1

[2] = test system: human Wnt2 promoter in NSCLC cell line A549; test: Wnt2 promoter-luciferase reporter assay; assay type: cell-based; details: for Wnt2 promoter activity: A549, 30 μM, 18-24 hours
Description: One day before transfection, cells (1×10^5) were plated in 12-well plates with growth medium without antibiotics. When cells reached 80-90% of confluence they were co-transfected using 0.5 μg of each promoter construct in pGL3Basic vector and 0.025 μg pRL-TK Vector (Promega; Madison, Wis.) containing Renilla Luciferase as an internal control for the transformation efficiency. Lipofectamine 2000™ (Invitrogen Life Technologies) was used to mediate transfection for about 6 hours. Then the medium was replaced with fresh medium containing various small molecule compounds at a concentration of 30 μM, and the resulting cells were cultured for an additional 18-24 hours and subjected to luciferase assay. Briefly, cells were lysed in a lysis buffer and Firefly and Renilla Luciferase activities in cells of each well, were measured using Dual-Luciferase Assay System (Promega) and an illuminometer. The measured luciferase activities were normalized to pRL-TK Vector activity and were given relative to the basal activity of empty pGL3-Basic Vector, which was set to unity. The data shown represent mean values (±S.D.). All measurements were performed in triplicate and repeated in at least three independent experiments. The human Wnt-2 promoter-luciferase construct, the human SOCS3 promoter-Luciferase construct and the human Gremlin promoter-luciferase construct were cloned and characterized in the laboratory of Dr. Jablons at the University of California, San Francisco (San Francisco, Calif.; He et al., Biochem Biophy Res Comm, 2003; and unpublished data). The 6GLI-TKO-luciferase construct (containing 6 repeats of consensus GLI DNA binding sequence) was kindly provided by Dr. Matthias Hebrok's laboratory at the University of California, San Francisco (San Francisco, Calif.).
To examine the specificity of the small molecule compounds of the invention, the compounds were tested for regulate the expression of Gli down-stream target genes. […] The human Wnt2 promoter was cloned and found to contain putative Gli-DNA binding sites within its promoter region (data not shown). […]

[3] = test system: Primary cultured NSCLC cells; test: Apoptosis analysis (Annexin V FITC, flow cytometry); assay type: cell-based, human; details: 3 days
Description: Fresh cancer tissue and adjacent normal tissue from patients undergoing curative primary resection of their tumors were collected at the time of surgery (IRB approval H8714-15319-040), and immediately snap-frozen in liquid nitrogen. These tissue samples were kept at −170° C. in a liquid nitrogen freezer until further use. Primary tissue cultures were prepared as follows: Fresh cancer tissue was obtained with consent from patients undergoing resection, cut into small pieces (1-2 mm in diameter), and then digested with Collagenase A (Roche Applied Science, Indianapolis, Ind.) at room temperature for 2 hours according to manufacture's protocol. Single cells from the digestion were spun down and the cell pellets were washed twice using RPMI 1640 supplemented with 10% fetal bovine serum, penicillin (100 IU/ml) and streptomycin (100 μg/ml). Then, the cells were resuspended in the same medium and cultured in 6-well plates at 37° C. in a humid incubator with 5% CO2 until they were ready for further treatments.
as §1
Flow cytometry was also used to examine apoptosis induced by molecule compounds of the invention. in primary cultured NSCLC cells freshly made from tissue samples. […] For example, app.

Row | SMILES | cell killing, Gli2-transfected versus empty vector cells ([1]; 50 μM) | % of apoptotic cells (H460 (NSCLC); H460, 30 μM) [%] | % of apoptotic cells (H460 (NSCLC); H460, 50 μM) [%] | % of apoptotic cells (CaCO2 (colon cancer); CaCO2, 10 μM) [%] | % of apoptotic cells (CaCO2 (colon cancer); CaCO2, 30 μM) [%] | % of apoptotic cells (CaCO2 (colon cancer); CaCO2, 50 μM) [%] | % of apoptotic cells (H838 (NSCLC); H838, 30 μM) [%] | % of apoptotic cells (H838 (NSCLC); H838, 50 μM) [%] | Wnt2 promoter activity [2] | % of apoptotic cells ([3]; 30 μM) [%] | % of apoptotic cells ([3]; 50 μM) [%] | apoptotic cells ([1]; SW480 transfected with empty vector) [%] | apoptotic cells ([1]; SW480 transfected with the Gli2 expression construct) [%] | % of apoptotic cells (H838 (NSCLC); H838, 10 μM) [%] | Wnt2 expression (Wnt2 promoter-luciferase reporter activity assay) ([2]; after FN1-8 treatment, data not shown) | % of apoptotic cells ([3]; 10 μM) [%]
1 | O=C(NCCCCCO)C1C(c2ccccc2)=NN(c2ccccc2)C1c1ccccc1 (stereo not shown) [FN1-5, N-(5-Hydroxypentyl)-1,3,5-triphenyl-4,5-dihydro-pyrazole-4-carboxyamide] | kill less cells transfected with Gli2 than those with empty vector | 11.9 | 15.7 | 8.2 | 19.8 | 30.3 | 14.2 | 20.0 | down-regulate Wnt2 promoter activity dramatically | 11.2 | 19.8 |  |  |  |  | 
2 | O=C(NCCc1ccc(O)cc1)C1C(c2ccccc2)=NN(c2ccccc2)C1c1ccccc1 (stereo not shown) [FN1-8, N-(2-(4-Hydroxyphenyl)ethyl)-1,3,5-triphenyl-4,5-dihydro-pyrazole-4-carboxyamide] |  | 12.1 | 75.2 |  | 19.9 | 39.4 | 18.3 | 82.3 | down-regulate Wnt2 promoter activity dramatically | 13.1 | 58.0 | 48.1 | 27.7 | 10.6 | down-regulated | 9.8
